Assay results: ChEMBL document CHEMBL1135305, “Enantiospecific, selective cyclooxygenase-2 inhibitors” (Bioorg Med Chem Lett, 2002)

Assays:
[1] = target: T1, Prostaglandin G/H synthase 1 (Ovis aries, UniProt P05979)
T1 sequence (P05979 whole entry): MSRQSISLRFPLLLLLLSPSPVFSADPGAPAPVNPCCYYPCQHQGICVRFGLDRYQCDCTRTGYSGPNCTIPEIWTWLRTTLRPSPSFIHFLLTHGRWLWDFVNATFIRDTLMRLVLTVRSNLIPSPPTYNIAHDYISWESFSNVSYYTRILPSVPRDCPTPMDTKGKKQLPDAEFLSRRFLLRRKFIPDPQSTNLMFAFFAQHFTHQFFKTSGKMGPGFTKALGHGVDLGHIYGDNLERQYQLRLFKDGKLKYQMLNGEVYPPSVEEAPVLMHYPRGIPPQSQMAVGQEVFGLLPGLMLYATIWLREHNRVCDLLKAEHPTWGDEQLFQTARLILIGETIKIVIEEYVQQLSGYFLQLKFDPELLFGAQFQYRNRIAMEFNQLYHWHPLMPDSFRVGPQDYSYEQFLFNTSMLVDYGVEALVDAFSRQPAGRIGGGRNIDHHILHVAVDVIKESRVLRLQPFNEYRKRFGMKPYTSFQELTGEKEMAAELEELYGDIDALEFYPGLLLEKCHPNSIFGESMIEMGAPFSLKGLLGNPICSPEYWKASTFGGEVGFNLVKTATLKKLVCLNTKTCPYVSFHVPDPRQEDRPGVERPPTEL
Description: Inhibitory concentration against prostaglandin G/H synthase 1

[2] = target: T2, Prostaglandin G/H synthase 2 (Homo sapiens, UniProt P35354); test: Inhibitory concentration against human prostaglandin G/H synthase 2
T2 sequence (P35354 whole entry): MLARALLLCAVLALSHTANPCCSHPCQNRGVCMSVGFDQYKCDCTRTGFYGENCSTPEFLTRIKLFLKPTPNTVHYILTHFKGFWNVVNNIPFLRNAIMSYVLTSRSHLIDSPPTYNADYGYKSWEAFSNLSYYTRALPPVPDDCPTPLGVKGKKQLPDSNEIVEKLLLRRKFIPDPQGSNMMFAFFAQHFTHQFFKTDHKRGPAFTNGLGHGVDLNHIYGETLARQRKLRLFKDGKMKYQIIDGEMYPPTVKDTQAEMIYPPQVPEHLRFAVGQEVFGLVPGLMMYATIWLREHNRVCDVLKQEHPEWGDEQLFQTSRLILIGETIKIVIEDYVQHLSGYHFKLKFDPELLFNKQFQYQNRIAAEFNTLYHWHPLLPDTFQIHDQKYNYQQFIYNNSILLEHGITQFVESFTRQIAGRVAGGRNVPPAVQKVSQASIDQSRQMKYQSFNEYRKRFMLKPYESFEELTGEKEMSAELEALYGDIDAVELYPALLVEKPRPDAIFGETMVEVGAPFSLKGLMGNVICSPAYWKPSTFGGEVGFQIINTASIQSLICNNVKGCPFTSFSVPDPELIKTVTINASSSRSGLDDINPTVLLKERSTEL

[3] = target: Prostaglandin G/H synthase 2 (Mus musculus, UniProt Q05769, L489F); test: Inhibitory concentration against L503F mutant murine Prostaglandin G/H synthase 2
[4] = target: Prostaglandin G/H synthase 2 (Mus musculus, UniProt Q05769, S105V); test: Inhibitory concentration against S119V mutant murine Prostaglandin G/H synthase 2
[5] = target: Prostaglandin G/H synthase 2 (Mus musculus, UniProt Q05769, F343L); test: Inhibitory concentration against F357L mutant murine Prostaglandin G/H synthase 2
[6] = target: T3, Prostaglandin G/H synthase 2 (Mus musculus, UniProt Q05769); test: Inhibitory concentration against V891 mutant murine Prostaglandin G/H synthase 2
[7] = target: T3, Prostaglandin G/H synthase 2; test: Inhibitory concentration against VRV, mutant murine Prostaglandin G/H synthase 2
[8] = target: Prostaglandin G/H synthase 2 (Mus musculus, UniProt Q05769, E510L); test: Inhibitory concentration against E524L mutant murine Prostaglandin G/H synthase 2
[9] = target: T4, Prostaglandin G/H synthase 2 (Mus musculus, UniProt Q05769); test: Inhibitory concentration against wild type murine Prostaglandin G/H synthase 2
T4 sequence (Q05769 whole entry): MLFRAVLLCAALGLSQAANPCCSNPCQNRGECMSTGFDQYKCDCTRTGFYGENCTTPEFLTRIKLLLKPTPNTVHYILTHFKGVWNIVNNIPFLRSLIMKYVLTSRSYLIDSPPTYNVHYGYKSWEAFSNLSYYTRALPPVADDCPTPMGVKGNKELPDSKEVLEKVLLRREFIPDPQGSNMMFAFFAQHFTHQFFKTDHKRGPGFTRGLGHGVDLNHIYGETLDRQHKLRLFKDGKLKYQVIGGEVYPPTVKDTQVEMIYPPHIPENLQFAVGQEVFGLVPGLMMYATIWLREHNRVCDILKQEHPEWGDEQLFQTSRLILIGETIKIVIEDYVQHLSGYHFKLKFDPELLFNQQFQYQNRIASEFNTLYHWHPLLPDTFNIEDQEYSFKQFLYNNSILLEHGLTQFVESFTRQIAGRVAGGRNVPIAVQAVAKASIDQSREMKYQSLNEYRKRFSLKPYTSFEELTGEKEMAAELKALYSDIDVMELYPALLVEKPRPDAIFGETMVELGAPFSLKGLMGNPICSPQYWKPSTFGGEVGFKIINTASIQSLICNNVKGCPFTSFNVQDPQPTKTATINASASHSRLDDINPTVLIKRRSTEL

[10] = target: Prostaglandin G/H synthase 2 (Mus musculus, UniProt Q05769, S516A); test: Inhibitory concentration against S530A mutant murine Prostaglandin G/H synthase 2
[11] = target: Prostaglandin G/H synthase 2 (Mus musculus, UniProt Q05769, H122N); test: Inhibitory concentration against H122N mutant murine Prostaglandin G/H synthase 2
[12] = target: Prostaglandin G/H synthase 2 (Mus musculus, UniProt Q05769, S105V/Y101L); test: Inhibitory concentration against Y115L/S119V mutant murine Prostaglandin G/H synthase 2
[13] = target: Prostaglandin G/H synthase 2 (Mus musculus, UniProt Q05769, R106Q); test: Inhibitory concentration against R120Q mutant murine Prostaglandin G/H synthase 2
[14] = target: Prostaglandin G/H synthase 2 (Mus musculus, UniProt Q05769, I92L); test: Inhibitory concentration against I92L mutant murine Prostaglandin G/H synthase 2
[15] = target: Prostaglandin G/H synthase 2 (Mus musculus, UniProt Q05769, Y101L); test: Inhibitory concentration against Y115L mutant murine Prostaglandin G/H synthase 2
[16] = target: T3, Prostaglandin G/H synthase 2; test: Inhibitory concentration against V5231, mutant murine Prostaglandin G/H synthase 2
[17] = target: Prostaglandin G/H synthase 2 (Mus musculus, UniProt Q05769, R106A); test: Inhibitory concentration against R120A mutant murine Prostaglandin G/H synthase 2
[18] = target: T3, Prostaglandin G/H synthase 2; test: Inhibitory concentration against l503F mutant murine Prostaglandin G/H synthase 2

Sequence of Prostaglandin G/H synthase 2 (Mus musculus, UniProt Q05769, S105V/Y101L) (Q05769 18-604 Y101L/S105V limits assumed): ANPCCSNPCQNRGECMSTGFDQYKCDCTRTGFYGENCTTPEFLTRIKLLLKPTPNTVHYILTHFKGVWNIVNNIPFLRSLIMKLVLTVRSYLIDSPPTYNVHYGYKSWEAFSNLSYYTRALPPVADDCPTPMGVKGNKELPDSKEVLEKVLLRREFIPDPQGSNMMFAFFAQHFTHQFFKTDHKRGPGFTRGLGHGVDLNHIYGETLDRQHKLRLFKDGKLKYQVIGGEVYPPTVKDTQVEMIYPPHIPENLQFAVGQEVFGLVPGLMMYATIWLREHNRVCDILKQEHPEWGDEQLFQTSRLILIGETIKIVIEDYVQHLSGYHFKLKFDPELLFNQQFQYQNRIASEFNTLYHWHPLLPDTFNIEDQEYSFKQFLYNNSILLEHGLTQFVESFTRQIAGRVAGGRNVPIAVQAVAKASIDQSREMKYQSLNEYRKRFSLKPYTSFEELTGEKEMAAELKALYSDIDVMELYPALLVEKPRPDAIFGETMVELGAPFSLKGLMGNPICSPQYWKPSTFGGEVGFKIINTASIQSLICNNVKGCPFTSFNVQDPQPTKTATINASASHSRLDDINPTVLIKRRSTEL
Sequence of Prostaglandin G/H synthase 2 (Mus musculus, UniProt Q05769, F343L) (Q05769 18-604 F343L limits assumed): as the sequence (Q05769 18-604 Y101L/S105V limits assumed) above, with L84Y, V88S, F326L counted along it
Sequence of Prostaglandin G/H synthase 2 (Mus musculus, UniProt Q05769, S105V) (Q05769 18-604 S105V limits assumed): as the sequence (Q05769 18-604 Y101L/S105V limits assumed) above, with L84Y counted along it
Sequence of Prostaglandin G/H synthase 2 (Mus musculus, UniProt Q05769, R106Q) (Q05769 18-604 R106Q limits assumed): as the sequence (Q05769 18-604 Y101L/S105V limits assumed) above, with L84Y, V88S, R89Q counted along it
Sequence of Prostaglandin G/H synthase 2 (Mus musculus, UniProt Q05769, R106A) (Q05769 18-604 R106A limits assumed): as the sequence (Q05769 18-604 Y101L/S105V limits assumed) above, with L84Y, V88S, R89A counted along it
Sequence of Prostaglandin G/H synthase 2 (Mus musculus, UniProt Q05769, S516A) (Q05769 18-604 S516A limits assumed): as the sequence (Q05769 18-604 Y101L/S105V limits assumed) above, with L84Y, V88S, S499A counted along it
Sequence of Prostaglandin G/H synthase 2 (Mus musculus, UniProt Q05769, E510L) (Q05769 18-604 E510L limits assumed): as the sequence (Q05769 18-604 Y101L/S105V limits assumed) above, with L84Y, V88S, E493L counted along it
Sequence of Prostaglandin G/H synthase 2 (Mus musculus, UniProt Q05769, Y101L) (Q05769 18-604 Y101L limits assumed): as the sequence (Q05769 18-604 Y101L/S105V limits assumed) above, with V88S counted along it
Sequence of Prostaglandin G/H synthase 2 (Mus musculus, UniProt Q05769, L489F) (Q05769 18-604 L489F limits assumed): as the sequence (Q05769 18-604 Y101L/S105V limits assumed) above, with L84Y, V88S, L472F counted along it

| IC50 [1] [nM] | IC50 [2] [nM] | Compound | other results |
| --- | --- | --- | --- |
| < 1300 | 85 | COc1ccc2c(c1)c(CC(=O)N[C@H](CO)c1ccccc1)c(C)n2C(=O)c1ccc(Cl)cc1 |  |
| > 63000 | 110 | COc1ccc2c(c1)c(CC(=O)N[C@@H](CO)C(C)C)c(C)n2C(=O)c1ccc(Cl)cc1 |  |
| 400 | 370 | COc1ccc2c(c1)c(CC(=O)N[C@H](CO)C(C)C)c(C)n2C(=O)c1ccc(Cl)cc1 |  |
| 2300 | 1000 | COc1ccc2c(c1)c(CC(=O)N[C@H](CO)CCSC)c(C)n2C(=O)c1ccc(Cl)cc1 |  |
| 64000 | 220 | COc1ccc2c(c1)c(CC(=O)NCCCO)c(C)n2C(=O)c1ccc(Cl)cc1 |  |
| > 60000 | 240 | COC[C@H](C)NC(=O)Cc1c(C)n(C(=O)c2ccc(Cl)cc2)c2ccc(OC)cc12 |  |
| 6800 | 140 | COC[C@@H](C)NC(=O)Cc1c(C)n(C(=O)c2ccc(Cl)cc2)c2ccc(OC)cc12 |  |
| 32000 | 320 | COc1ccc2c(c1)c(CC(=O)NC[C@H](C)O)c(C)n2C(=O)c1ccc(Cl)cc1 |  |
| 480 | 110 | CCC(C)[C@@H](CO)NC(=O)Cc1c(C)n(C(=O)c2ccc(Cl)cc2)c2ccc(OC)cc12 (stereo not given in full) |  |
| > 83000 | 290 | COc1ccc2c(c1)c(CC(=O)NCCCCCO)c(C)n2C(=O)c1ccc(Cl)cc1 |  |
| < 3900 | 170 | COc1ccc2c(c1)c(CC(=O)N[C@H](CO)CC(C)C)c(C)n2C(=O)c1ccc(Cl)cc1 |  |
| 47000 | 440 | COc1ccc2c(c1)c(CC(=O)N[C@@H](CO)c1ccccc1)c(C)n2C(=O)c1ccc(Cl)cc1 |  |
| 33000 | 170 | COc1ccc2c(c1)c(CC(=O)N[C@H](C)CO)c(C)n2C(=O)c1ccc(Cl)cc1 | IC50 [3]: 300 nM; IC50 [4]: 240 nM; IC50 [5]: 250 nM; IC50 [6]: 250 nM; IC50 [7]: 340 nM; IC50 [8]: 560 nM; IC50 [9]: 540 nM; IC50 [10]: 570 nM; IC50 [11]: 690 nM; IC50 [12]: 290 nM; IC50 [13]: 90 nM; IC50 [14]: 200 nM; IC50 [15]: 325 nM; IC50 [16]: 690 nM; IC50 [17]: 50 nM |
| 350 | 280 | CC[C@@H](CO)NC(=O)Cc1c(C)n(C(=O)c2ccc(Cl)cc2)c2ccc(OC)cc12 |  |
| 4700 | 110 | CC[C@H](C)NC(=O)Cc1c(C)n(C(=O)c2ccc(Cl)cc2)c2ccc(OC)cc12 |  |
| 52000 | 330 | COc1ccc2c(c1)c(CC(=O)NC[C@@H](C)O)c(C)n2C(=O)c1ccc(Cl)cc1 |  |
| 800 | 190 | COc1ccc2c(c1)c(CC(=O)NC(C)(C)CO)c(C)n2C(=O)c1ccc(Cl)cc1 |  |
| > 63000 | 500 | COc1ccc2c(c1)c(CC(=O)N[C@@H](CO)CC(C)C)c(C)n2C(=O)c1ccc(Cl)cc1 |  |
| 51000 | 250 | COc1ccc2c(c1)c(CC(=O)N[C@@H](CO)CCSC)c(C)n2C(=O)c1ccc(Cl)cc1 |  |
| 86000 | 280 | COc1ccc2c(c1)c(CC(=O)NCCCCO)c(C)n2C(=O)c1ccc(Cl)cc1 |  |
| 59000 | 100 | CC[C@H](CO)NC(=O)Cc1c(C)n(C(=O)c2ccc(Cl)cc2)c2ccc(OC)cc12 |  |
| > 80000 | 1700 | COc1ccc2c(c1)c(CC(=O)NN1CCC[C@@H]1CO)c(C)n2C(=O)c1ccc(Cl)cc1 |  |
| 180 | 130 | CC[C@@H](C)NC(=O)Cc1c(C)n(C(=O)c2ccc(Cl)cc2)c2ccc(OC)cc12 |  |
| < 3900 | 85 | COc1ccc2c(c1)c(CC(=O)N[C@H](CO)Cc1ccccc1)c(C)n2C(=O)c1ccc(Cl)cc1 |  |
| > 63000 | 210 | COc1ccc2c(c1)c(CC(=O)NCCCCCCO)c(C)n2C(=O)c1ccc(Cl)cc1 |  |
| > 50000 | 220 | COc1ccc2c(c1)c(CC(=O)N[C@@H](CO)Cc1ccccc1)c(C)n2C(=O)c1ccc(Cl)cc1 |  |
| > 80000 | 1800 | COc1ccc2c(c1)c(CC(=O)NN1CCC[C@H]1CO)c(C)n2C(=O)c1ccc(Cl)cc1 |  |
| 590 | 270 | COc1ccc2c(c1)c(CC(=O)N[C@@H](C)CO)c(C)n2C(=O)c1ccc(Cl)cc1 | IC50 [4]: 200 nM; IC50 [5]: 250 nM; IC50 [6]: 85 nM; IC50 [7]: 110 nM; IC50 [8]: 220 nM; IC50 [9]: 170 nM; IC50 [10]: 150 nM; IC50 [11]: 300 nM; IC50 [12]: 210 nM; IC50 [13]: 75 nM; IC50 [14]: 200 nM; IC50 [15]: 390 nM; IC50 [16]: 220 nM; IC50 [17]: 60 nM; IC50 [18]: 160 nM |

| Compound | IC50 [1] [nM] | IC50 [2] [nM] | other results |
| --- | --- | --- | --- |
| COc1ccc2c(c1)c(CC(=O)NC[C@@H](O)c1ccccc1)c(C)n2C(=O)c1ccc(Cl)cc1 | 56000 | 47 |  |
| COc1ccc2c(c1)c(CC(=O)NC[C@H](O)c1ccccc1)c(C)n2C(=O)c1ccc(Cl)cc1 | > 63000 | 210 |  |
